Data reported in patent US6878546B2, “Product and method for swelling a cell nucleus without DNA replication” (Brandeis University, priority 1993, dated 2005).
Like-named read-outs stand apart in the source and are kept apart here.

Tests used:
[1] = test system: Xenopus erythrocyte nuclei; experiment: Induction optimization: P^32-dCTP incorporation into DNA of pretreated nuclei in activating egg extract, cycloheximide added at different times; type: biochemical; conditions: total 60 minutes at 25° C.
Experimental: Induction optimization was carried for Xenopus as describe below (see also Example 2, infra, for further optimization experiments). Xenopus erythrocyte nuclei were isolated and pretreated with lysolecithin and trypsin as described in Example 2 (described below). An activating egg extract was prepared from hardened eggs which were induced for 10 minutes as described above. Both the activating egg extract and the pretreated nuclei were kept on ice (about 4° C.). The activating egg extract was supplemented with 1 mM ATP (not used in the other examples described herein), 10 μg/ml creatine phosphokinase, 10 mM creatine phosphate, 10 μCi P^32-dCTP and combined with pretreated nuclei (about 200 nuclei/μl). Individual aliquots containing activated nuclei were shifted from 4° C. to 25° C. […] After 60 minutes, P^32-dCTP incorporation into newly synthesized DNA was determined.

erythrocyte nuclei = experiment: Supplements to CSF extract: chromatin assembly and later DNA synthesis in activating egg extract; type: biochemical, Xenopus
Excerpt: After further pretreatment in CSF extract, the nuclei may be activated by adding 9 volumes of “prepared activating egg extract.” DNA replication, measured by incorporation of labelled nucleotides into DNA strands, may be used to determine the extent to which prior treatment in CSF extract enhances nuclear activation in activating extract. Labelled nucleotides useful in measuring nuclear DNA replication include microcurie amounts of P^32-dCTP for radioactive measurement of newly synthesized DNA, 16-50 μM biotinylated-dUTP or BrdUTP for fluorescent measurement of newly synthesized DNA, and 250 μM BrdUTP for density labelling of newly synthesized DNA.
Several supplements to CSF extract, in the proper concentration, increased the ability of CSF extract to enhance activation activity without resulting in premature DNA synthesis activity. Useful supplements include β-glycerol-PO4, Ca^2+, and protein kinase inhibitors. The addition of β-glycerol-PO4 increased the rate at which negatively supercoiled DNA relaxed in CSF extract and was subsequently assembled into chromatin. […] Beta-glycerol-PO4 is an inhibitor of phosphatase activity and may act by increasing the level of the phosphorylated functionally-active form of topoisomerase II in the CSF extract. […]

[2] = test system: Xenopus red blood cells nuclei; conditions: for Cpm Incorporated After X Minutes: 23° C.
Experimental: The affect of cAMP on DNA replication in activated Xenopus red blood cells was determined.
Cyclic-AMP was then added to separate aliquots to yield final concentrations of 0.0 μM, 0.1 μM, 1.0 μM, or 10 μM.
Each aliquot was warmed to 23° C. and sampled over time to determine P^32-dCTP incorporation into replicated DNA. At each time point, a 7 μl aliquot was taken, frozen on dry ice, and later thawed and digested by the addition of 10 μl replication sample buffer (80 mM Tris (pH 8.0), 8 mM EGTA, 0.13% phosphoric acid, 10% Ficoll, 5% SDS, 0.2% bromphenol blue) containing proteinase K (1.0 mg/ml) for 2 hours at room temperature. Incorporated radioactivity was analyzed by electrophoresis on a 0.8% agarose gel (50V, 20 hours) followed by vacuum drying the gel and counting on a Betascope.

[3] = test system: Xenopus erythrocyte nuclei; experiment: DNA replication in activating egg extract after further pretreatment in CSF extract supplemented with DMAP; type: biochemical; conditions: 5 mM DMAP in CSF extract; FIG. 2
Experimental: Addition of 6-dimethylaminopurine (DMAP) to CSF extracts was used to further pretreat Xenopus erythrocyte nuclei and stimulate subsequent DNA replication in activating egg extract. DMAP can be used to inhibit nucleic acid synthesis and protein kinase activity. Xenopus erythrocyte nuclei were isolated and pretreated as described in Example 1 above, and incubated in thawed “prepared CSF extract” supplemented with 80 mM β-glycerol-PO4, and 5 μg/ml nocodazole at a concentration of 2000 nuclei/μl. Further pretreatment was carried out by incubation for 30 minutes at 4° C., then 30 minutes at 25° C., then 60 minutes at 4° C. Half the samples were supplemented with 5 mM DMAP before addition of the nuclei. After the two hours of incubation, each sample was diluted with 9 volumes of activating egg extract, supplemented with 5 μg/ml nocodazole (this dose of nocodazole slows down the rate of replication) and approximately 160 μCi/ml P^32-dCTP. Aliquots were removed over time to measure DNA replication.

[4] = test system: human fetal liver erythroid cell nuclei; experiment: Activation of human fetal liver erythroid cell nuclei in activating extract (swelling, replication, chromosome formation); type: biochemical; conditions: aphidicolin added at T=0
Experimental: Step 5: Activation of erythroid cell nuclei. Nuclear swelling, envelope formation, and replication were carried out on human fetal liver erythroid cell nuclei prepared using the optimal conditions described in steps 1-4 above. […] The resulting nuclei concentration was about 200/μl.
The following measurement were taken: DNA synthesis was monitored using extract containing P^32dCTP by gel electrophoresis; histone H1 kinase was measured; and samples, labelled with biotinylated-dUTP were taken for cytological analysis of DNA replication and nuclear envelope breakdown.
Experiments were also carried out to determine whether nuclear swelling was dependent on DNA synthesis, by activating nucleic in the presence of aphidicolin (added at T=0).
Swelled and replicated nuclei were treated with Cyclin-Δ90 or CSF extract. Cyclin-Δ90 was added to activating extract to obtain prophase mitotic chromosomes, while CSF extract was added to obtain metaphase chromosomes and nuclear envelope breakdown.

[5] = test system: Xenopus red blood cells nuclei; experiment: DNA replication in activated nuclei in caffeine supplemented activating egg extract; type: biochemical; conditions: caffeine at 1.0 mM in the presence of 0.3 μM cAMP; compared with 0.2 mM and 5.0 mM; FIG. 1
Experimental: The experimental conditions used were as described in Example 1 with the following changes: the concentration of cAMP was set at 0.3 μM and caffeine was added to the activating egg extract to a concentration of either 0.2 mM, 1.0 mM, or 5.0 mM.

[6] = Rate of DNA replication in activating egg extract with nocodazole; type: biochemical; conditions: 5 μg/ml nocodazole added to activating egg extract

## C[C@@H]1C[C@@H]([C@H](O)CC2CC(=O)NC(=O)C2)C(=O)[C@@H](C)C1 [CHM, Cycloheximide]
[1]; CHM 100 μg/ml added at 0 minutes, extract from eggs induced 10 minutes
  Cpm Incorporated into DNA: 2,894 Cpm
[1]; CHM 100 μg/ml added at 5 minutes
  Cpm Incorporated into DNA: 4,208 Cpm
[1]; CHM 100 μg/ml added at 15 minutes
  Cpm Incorporated into DNA: 4,937 Cpm
[1]; CHM 100 μg/ml added at 30 minutes
  Cpm Incorporated into DNA: 3,775 Cpm
[1]; CHM 100 μg/ml added at 45 minutes
  Cpm Incorporated into DNA: 2,314 Cpm

## [Ca+2].[Cl-].[Cl-] [Ca^2+, CaCl2]
Erythrocyte nuclei; 100 μM Ca^2+ added to CSF extract
  amount and rate of DNA synthesis in erythrocyte nuclei after addition of activating egg extract: increased both the amount and the rate of DNA synthesis

## Nc1ncnc2c1ncn2[C@@H]1O[C@@H]2COP(=O)(O)O[C@H]2[C@H]1O [Cyclic AMP, Cyclic-AMP]
[2]; 0.1 μM cAMP
  DNA replication in activated nuclei compared to without any cAMP: increased
[2]; 1.0 μM cAMP, compared with 0.1 μM
  DNA replication in activated nuclei compared to without any cAMP: greater increase
[2]; 10 μM cAMP
  DNA replication in activated nuclei compared to without any cAMP: inhibits DNA replication
[2]; 0.1 Micromoles of Cyclic AMP Added, after 0 minutes
  Cpm Incorporated After X Minutes: 14 Cpm
[2]; 0.1 Micromoles of Cyclic AMP Added, after 45 minutes
  Cpm Incorporated After X Minutes: 51 Cpm
[2]; 0.1 Micromoles of Cyclic AMP Added, after 90 minutes
  Cpm Incorporated After X Minutes: 68 Cpm
[2]; 0.1 Micromoles of Cyclic AMP Added, after 135 minutes
  Cpm Incorporated After X Minutes: 290 Cpm
[2]; 0.1 Micromoles of Cyclic AMP Added, after 180 minutes
  Cpm Incorporated After X Minutes: 1,141 Cpm
[2]; 0.1 Micromoles of Cyclic AMP Added, after 240 minutes
  Cpm Incorporated After X Minutes: 2,945 Cpm
[2]; 0.1 Micromoles of Cyclic AMP Added, after 300 minutes
  Cpm Incorporated After X Minutes: 2,692 Cpm
[2]; 1.0 Micromoles of Cyclic AMP Added, after 0 minutes
  Cpm Incorporated After X Minutes: 10 Cpm
[2]; 1.0 Micromoles of Cyclic AMP Added, after 45 minutes
  Cpm Incorporated After X Minutes: 14 Cpm
[2]; 1.0 Micromoles of Cyclic AMP Added, after 90 minutes
  Cpm Incorporated After X Minutes: 56 Cpm
[2]; 1.0 Micromoles of Cyclic AMP Added, after 135 minutes
  Cpm Incorporated After X Minutes: 564 Cpm
[2]; 1.0 Micromoles of Cyclic AMP Added, after 180 minutes
  Cpm Incorporated After X Minutes: 2,316 Cpm
[2]; 1.0 Micromoles of Cyclic AMP Added, after 240 minutes
  Cpm Incorporated After X Minutes: 4,484 Cpm
[2]; 1.0 Micromoles of Cyclic AMP Added, after 300 minutes
  Cpm Incorporated After X Minutes: 5,504 Cpm
[2]; 10 Micromoles of Cyclic AMP Added, after 0 minutes
  Cpm Incorporated After X Minutes: 43 Cpm
[2]; 10 Micromoles of Cyclic AMP Added, after 45 minutes
  Cpm Incorporated After X Minutes: 34 Cpm
[2]; 10 Micromoles of Cyclic AMP Added, after 90 minutes
  Cpm Incorporated After X Minutes: 31 Cpm
[2]; 10 Micromoles of Cyclic AMP Added, after 135 minutes
  Cpm Incorporated After X Minutes: 35 Cpm
[2]; 10 Micromoles of Cyclic AMP Added, after 180 minutes
  Cpm Incorporated After X Minutes: 85 Cpm
[2]; 10 Micromoles of Cyclic AMP Added, after 240 minutes
  Cpm Incorporated After X Minutes: 168 Cpm
[2]; 10 Micromoles of Cyclic AMP Added, after 300 minutes
  Cpm Incorporated After X Minutes: 571 Cpm

## CN(C)c1ncnc2nc[nH]c12 [DMAP, 6-dimethylaminopurine]
[3]
  initial rate and total amount of DNA synthesis: increased
  lag time before the onset of replication: decreased

## C[C@@]1(CO)[C@H](O)CC[C@@]2(C)[C@H]1CC[C@H]1C[C@@H]3C[C@@]12CC[C@]3(O)CO [aphidicolin]
[4]
  replication (biotin labelling): no replication took place
[4]; absence of replication
  nuclear swelling: many nuclei swelled significantly

## Cn1c(=O)c2c(ncn2C)n(C)c1=O [caffeine]
[5]
  initial rate and extent of DNA replication in activated nuclei: highest initial rate and extent of DNA replication

## COC(=O)Nc1nc2ccc(C(=O)c3cccs3)cc2[nH]1 [nocodazole]
[6]
  rate of DNA replication: decreases

## O=P(O)(O)OC(CO)CO [β-glycerol-PO4]
Erythrocyte nuclei; about 80 mM β-glycerol-PO4
  chromatin assembly in CSF extract: aid in chromatin assembly without causing DNA synthesis
